This is an account of results in US10375956B2, “Herbicidally active 2-(substituted-phenyl)-cyclopentane-1,3-dione compounds and derivatives thereof” (Syngenta Limited, priority 2013, dated 2019).

What all share (assay type): in vivo
Assay [1] concerns Alopecurus myosuroides (ALOMY). Briefly: Test 1 glasshouse assay, pre-emergence herbicidal activity. Particulars: 312 h, visual evaluation after 13 days, read-out: Percentage phytotoxicity ALOMY. The procedure: (§1) Seeds of a variety of test species are sown in standard soil in pots. After cultivation for one day (pre-emergence) or after 8 days cultivation (post-emergence) under controlled conditions in a glasshouse (at 24/16° C., day/night; 14 hours light; 65% humidity), the plants are sprayed with an aqueous spray solution derived from the formulation of the “technical” (i.e. unformulated) active ingredient in acetone/water (50:50) solution containing 0.5% Tween 20 (polyoxyethylene sorbitan monolaurate, CAS Registry Number 9005-64-5). The test plants are then grown on under controlled conditions in a glasshouse (at 24/16° C., day/night; 14 hours light; 65% humidity) and watered twice daily. After 13 days for pre- or post-emergence, the test is evaluated visually, and an assessed percentage phytotoxicity score is given for each herbicidal application on each plant species (where 100%=total damage to plant; 0%=no damage to plant).
(§2) Test plants include the following: Abutilon theophrasti (ABUTH), Amaranthus retroflexus (AMARE): these are dicotyledonous (broadleaved) weeds. Setaria faberi (SETFA), Alopecurus myosuroides (ALOMY), Echinochloa crus-galli (ECHCG): these are grassy monocotyledonous weeds. Also: Zea mays (ZEAMX, corn/maize), which can be a grassy weed (“volunteer” corn) in some circumstances.

Assay [2] deals with Echinochloa crus-galli (ECHCG). Described as above. Particulars: 312 h, visual evaluation after 13 days, read-out: Percentage phytotoxicity ECHCG. The procedure:
as §1, §2

Assay [3] has as its system Alopecurus myosuroides (ALOMY). Briefly: Test 1 glasshouse assay, post-emergence herbicidal activity. Particulars: 312 h, after 13 days, read-out: Percentage phytotoxicity ALOMY. The procedure: as §1
(§3) Test plants include the following: Abutilon theophrasti (ABUTH) and Amaranthus retroflexus (AMARE); these are all dicotyledonous (broadleaved) weeds. Setaria faberi (SETFA), Alopecurus myosuroides (ALOMY), and Echinochloa crus-galli (ECHCG); these are all grassy monocotyledonous weeds. Also: Zea mays (ZEAMX, corn/maize), which can be a grassy weed (“volunteer” corn) in some circumstances.
(§4) Lolium perenne (LOLPE), Alopecurus myosuroides (ALOMY), Echinochloa crus-galli (ECHCG), and Avena fatua (AVEFA); these are all grassy monocotyledonous weeds. Cool climate crop plant: Triticum aestivum (TRZAW, winter wheat).

Assay [4] has as its system Echinochloa crus-galli (ECHCG). Described as above. Particulars: 312 h, after 13 days, read-out: Percentage phytotoxicity ECHCG. The procedure: as §1, §3, §4
Assay [5] deals with Avena fatua (AVEFA). The description is as above. Particulars: 312 h, post-emergence (Example 1B Table 2), after 13 days, read-out: Percentage phytotoxicity AVEFA. The procedure: as §1, §4
Assay [6] has as its system Lolium perenne (LOLPE). Described as above. Particulars: 312 h, post-emergence (Example 1B Table 2), after 13 days, read-out: Percentage phytotoxicity LOLPE. The procedure: as §1, §4
Assay [7] concerns Triticum aestivum (TRZAW, winter wheat). The description is as above. Particulars: 312 h, post-emergence (Example 1B Table 2), after 13 days, crop plant, read-out: Percentage phytotoxicity TRZAW. The procedure: as §1, §4
Assay [8] deals with Abutilon theophrasti (ABUTH). The assay is described as above. Particulars: 312 h, post-emergence (Example 1B Table 1), after 13 days, read-out: Percentage phytotoxicity ABUTH. The procedure: as §1, §3
In assay [9] the test system is Amaranthus retroflexus (AMARE). Described as above. Particulars: 312 h, post-emergence (Example 1B Table 1), after 13 days, read-out: Percentage phytotoxicity AMARE. The procedure:
as §1, §3

The test system of assay [10] is Setaria faberi (SETFA). The description is as above. Particulars: 312 h, post-emergence (Example 1B Table 1), after 13 days, read-out: Percentage phytotoxicity SETFA. The procedure: as §1, §3
The subject of assay [11] is Zea mays (ZEAMX, corn/maize). The description is as above. Particulars: 312 h, post-emergence (Example 1B Table 1), after 13 days, read-out: Percentage phytotoxicity ZEAMX. The procedure:
as §1, §3

The subject of assay [12] is Abutilon theophrasti (ABUTH). Put plainly: Test 1 glasshouse assay, pre-emergence herbicidal activity. Particulars: 312 h, visual evaluation after 13 days, read-out: Percentage phytotoxicity ABUTH. The procedure:
as §1, §2

For assay [13], the system named is Amaranthus retroflexus (AMARE). The assay is described as above. Particulars: 312 h, visual evaluation after 13 days, read-out: Percentage phytotoxicity AMARE. The procedure: as §1, §2
Assay [14] concerns Setaria faberi (SETFA). The description is as above. Particulars: 312 h, visual evaluation after 13 days, read-out: Percentage phytotoxicity SETFA. The procedure: as §1, §2
The test system of assay [15] is Zea mays (ZEAMX, corn/maize). Described as above. Particulars: 312 h, visual evaluation after 13 days, read-out: Percentage phytotoxicity ZEAMX. The procedure:
as §1, §2

[16] abbreviates: post-emergence (Example 1B Table 2).
Setting [17] is: post-emergence (Example 1B Table 1), 8 g/ha.
The mark [18] stands for this setting: post-emergence (Example 1B Table 1).
Where [19] appears, read: post-emergence (Example 1B Table 1), 30 g/ha.

Structures are written as SMILES.

For `CC#CCC1CC(=O)C(c2c(C)cc(C)cc2C)C1=O` (centres unmarked) [Compound A24], the pest or weed control at 250 g/ha in [1] was found to be 100%; in [2], 100%; in assay [3] (setting [16]) it was 80%; in [4] (setting [16]), 80%; in assay [5], 50%; in assay [6] it was 80%. In addition, the pest or weed control at 62.5 g/ha in assay [3] (setting [16]) is 60%; in assay [4] (setting [16]), 70%; in assay [5] it was 60%; in [6] it was 70%. The plant injury at 62.5 g/ha in assay [7] was 0%. The plant injury at 250 g/ha in assay [7] turned out to be 0%.

For the molecule `C#CCC1C(=O)C(c2cc(-c3ccc(Cl)cc3)ccc2C)C(=O)C1CC#C` (centres unmarked) [Compound A44], the pest or weed control at 8 g/ha in assay [8] (8 g/ha) stood at 0%; in [9] (8 g/ha) it was 0%; in assay [10] (8 g/ha), 0%; in assay [11] (8 g/ha), 30%; in assay [3] (setting [17]), 0%; in [4] (setting [17]), 0%. For the same molecule, the pest or weed control at 250 g/ha in [8] is 10%; in assay [9], 0%; in assay [10], 0%; in assay [11] it was 20%; in [3] (setting [18]) it was 0%; in assay [4] (setting [18]), 0%.

As to `C#CCC1CC(=O)C(c2c(C)cc(C#C)cc2C)C1=O` (centres unmarked) [Compound A27], the pest or weed control at 250 g/ha in assay [1], in assay [2], in [3] (setting [16]), in assay [4] (setting [16]), in assay [5] and in assay [6] was 100% each time. Moreover, the pest or weed control at 62.5 g/ha in assay [3] (setting [16]) was determined as 90%; in assay [4] (setting [16]), 90%; in [5], 90%; in assay [6], 80%. Moreover, in [7], the plant injury at 62.5 g/ha was determined as 80%. In assay [7], the plant injury at 250 g/ha was 90%.

Consider `C#CCC1CC(=O)C(c2c(F)cc(-c3ccc(F)cc3)cc2Cl)C1=O` (centres unmarked) [Compound A4], for which the pest or weed control at 250 g/ha amounted to 0% in [12]; 90% in assay [1]; 80% in assay [13]; 100% in assay [2]; 100% in assay [14]; 100% in [15]. The pest or weed control at 250 g/ha was found to be 80% in assay [8]; 80% in [9]; 100% in assay [10]; 100% in assay [11]; 100% in assay [3] (setting [18]); 100% in assay [4] (setting [18]). Besides, the pest or weed control at 30 g/ha is 40% in assay [8] (30 g/ha); 60% in [9] (30 g/ha); 100% in assay [10] (30 g/ha); 100% in assay [11] (30 g/ha); 70% in assay [3] (setting [19]); 90% in assay [4] (setting [19]).

For `C#CCC1CC(=O)C(c2c(Cl)cccc2Cl)C1=O` (centres unmarked) [Compound A29], the pest or weed control at 250 g/ha came to 70% in assay [1]; 90% in [2]; 80% in [3] (setting [16]); 100% in assay [4] (setting [16]); 60% in assay [5]; 80% in assay [6]. The pest or weed control at 62.5 g/ha came to 60% in assay [3] (setting [16]), 90% in assay [4] (setting [16]), 0% in assay [5] and 60% in assay [6]. Also, the plant injury at 62.5 g/ha in assay [7] stood at 60%. In addition, the plant injury at 250 g/ha in assay [7] is 80%.

In the case of `C#Cc1cc(C)c(C2C(=O)CC(CC#CC)C2=O)c(C)c1` (centres unmarked) [Compound A28], the pest or weed control at 250 g/ha in assay [1] came to 90%; in [2] it was 100%; in assay [3] (setting [16]), 100%; in [4] (setting [16]), 100%; in assay [5], 90%; in assay [6], 90%. For the same molecule, the pest or weed control at 62.5 g/ha in assay [3] (setting [16]) came to 70%; in [4] (setting [16]), 90%; in [5], 80%; in assay [6], 80%. Besides, the plant injury at 62.5 g/ha in [7] stood at 30%. Further, in assay [7], the plant injury at 250 g/ha worked out at 80%.

Turning to `C#CCC1CC(=O)C(c2ccc(-c3ccc(Cl)cc3)cc2C)C1=O` (centres unmarked) [Compound A43], the pest or weed control at 250 g/ha in [9] was 0%; in assay [10], 70%; in [3] (setting [18]), 20%; in [4] (setting [18]) it was 20%.

In the case of `C#CCC1CC(=O)C(c2c(Br)cc(C)cc2Br)C1=O` (centres unmarked) [Compound A26], the pest or weed control at 250 g/ha in assay [1] is 30%; in assay [2], 80%; in [3] (setting [16]), 60%; in [4] (setting [16]) it was 100%; in assay [5] it was 70%; in assay [6], 100%. For the same molecule, the plant injury at 250 g/ha in assay [7] came to 10%.
